Laboratory results reported in US11655254B2, “Substituted piperazines as BTK inhibitors” (HUTCHISON MEDIPHARMA LIMITED, priority 2020, dated 2023).

Legend:
[1] = Drug concentration in plasma of mice of the B cell activation study; assay type: in vivo; conditions: C57BL/6, plasma; mouse, 5 mg/kg oral, 16 h after administration
Description: The animals of each group were administered, then were placed in CO2 for anesthesia at designated time points, blood samples were taken from […] via retro-orbital bleeding, and heparin was used for anticoagulation; 90 μL of whole blood was taken from mice of each group, and added to a 96 well culture plate, and anti-mouse IgD antibody (BIO-RAD, Cat #MCA4693) was added to each well to a final concentration of 0.01 μg/μL (respectively for each drug-treated group and anti-IgD antibody-inducted vehicle group); in addition, 90 μL of whole blood of mice in the vehicle group was taken and added to the 96-well culture plate, and PBS (phosphate buffer, GIBCO, Cat # C20012500BT) was added to each well to a final concentration of 0.01 μg/μL (namely, the vehicle control group); Each group was mixed well and incubated in a 37° C./5% CO2 incubator for 4 hours. In addition, the blood of mice in the drug-treated group was centrifuged to separate plasma for blood concentration analysis.

[2] = tested on: CIA (collagen induced arthritis) rats; experiment: Rat arthritis model induced by type II collagen (CIA); assay type: in vivo; conditions: compared with vehicle control group
Description: An appropriate amount of bovine type II collagen (CII, Chondrex (Redmond, Wash., USA), Cat #20021) was weighed and dissolved in 0.1 mole of acetic acid (SPGC Sinopharm Chemical Reagent Co., Ltd (Shanghai, P.R. China), Cat #: 10000218.), which was formulated into a solution with a concentration of 6 mg/mL, stirred at 4° C. overnight, and added with an equal volume of Freund's incomplete adjuvant (Sigma-Aldrich.(St. Louis, Mo., USA), Cat #: SLBW0366.), fully emulsified to prepare an emulsion with a CII concentration of 3 mg/mL.
Female Lewis rats were purchased from Beijing Vital River Laboratory Animal Technology Co., Ltd. (certificate number 20200928Aazz0619000579, initial body weight of 110-130 grams), and 6 rats were randomly selected as a normal group; and all of the remaining rats were immunized. In the first immunization on day 0, the rats except those in the normal group were anesthetized with isoflurane (Hebei Yipin Pharmaceutical Co., Ltd., Lot: C002170601.), and then disinfected with 75% alcohol, and 0.2 mL of emulsion was injected intradermally at the base of the tail thereof. A second challenge was carried out on day 7, and 0.2 mL of emulsion was intradermally injected using the same method. Once the animals developed symptoms on day 10, the incidence conditions thereof were closely monitored.
After grouping, the normal group was not administered, and the rats in the other groups were administered with the control vehicle, 0.25 mg/kg and 4 mg/kg of the reference GDC-0853, and each dose of compound 1 orally once a day until the end of the experiment.
The paw volume was measured on day 10 after immunization, and the left and right hind paw volumes (V) were measured every day after the paw volume increase was detected.
The arthrosis paw volumes of the left and right hind limbs of each animal were measured, and the average paw volume (APV) was calculated according to the following formula: Average paw volume APV=(Vleft+Vright)/2
The average arthrosis paw volume of each animal before administration was used as the baseline (or considered 100% inhibition of inflammation). […]
The area under the curve (AUC) of the average paw volume swelling is the area under the curve of the arthrosis score swelling calculated by the trapezoid method, and the calculation formula is: AUCAPS=1/2×(APSd1+APSd2)×(d2−d1)+1/2×(APSd2+APSd3)×(d3−d2)+ . . . +1/2×(APSdn+APSd(n-1))×(dn−dn-1). […]
ED50 is calculated by XLfit software according to the AUC inhibition ratio of the area under the curve of the average paw volume swelling. […]

[3] = molecular target: Phosphorylated BTK in Ramos cells (Homo sapiens (Human), UniProt Q06187); experiment: Determination of phosphorylated BTK in Ramos cells (BTK phospho-Y223 HTRF); assay type: cell-based; conditions: Ramos cells stimulated with immunoglobulin M 10 μg/mL and hydrogen peroxide 3.3 mM, 10 minutes
Description: Ramos cells were starved in PRMI 1640 medium with 1% FBS for 2 hours. The starved Ramos cells were diluted with Hank's balanced salt solution to 5.0×10^6 cells/ml, seeded in a 96-well plate with 20 μL/well (1.0×10^5 cells/well), and cultured in a 5% CO2, 37° C. cell incubator. […]
The 384 well plate incubated overnight in the constant temperature incubator was taken out to detect the luminescence signal using the Envision microwell plate reader at the […]. The reading value at 665 nm/615 nm of each well multiplied by 10^4 was used as the signal value of each well.
The average signal value of the wells supplemented with the mixed solution of human immunoglobulin M (final concentration was 10 μg/mL) and hydrogen peroxide (final concentration was 3.3 mM) without the test compound was regarded as the high value, and the average signal value of the wells without immunoglobulin M stimulation and without the test compound was regarded as the low value. According to the signal value in each well, the inhibition ratio (%) of each concentration of compounds was calculated, and the 205 model in XL-Fit 5.3 software (ID Business Solutions Limited) was used to obtain an IC50 value.
The inhibition ratio is calculated as follows: inhibition ratio (%)=100%−{(treating well for the test compound−negative control treating well)/(control treating well for anti-human immunoglobulin M−negative control treating well)}×100%, wherein, […]

Sequence of Phosphorylated BTK in Ramos cells (Q06187 whole entry): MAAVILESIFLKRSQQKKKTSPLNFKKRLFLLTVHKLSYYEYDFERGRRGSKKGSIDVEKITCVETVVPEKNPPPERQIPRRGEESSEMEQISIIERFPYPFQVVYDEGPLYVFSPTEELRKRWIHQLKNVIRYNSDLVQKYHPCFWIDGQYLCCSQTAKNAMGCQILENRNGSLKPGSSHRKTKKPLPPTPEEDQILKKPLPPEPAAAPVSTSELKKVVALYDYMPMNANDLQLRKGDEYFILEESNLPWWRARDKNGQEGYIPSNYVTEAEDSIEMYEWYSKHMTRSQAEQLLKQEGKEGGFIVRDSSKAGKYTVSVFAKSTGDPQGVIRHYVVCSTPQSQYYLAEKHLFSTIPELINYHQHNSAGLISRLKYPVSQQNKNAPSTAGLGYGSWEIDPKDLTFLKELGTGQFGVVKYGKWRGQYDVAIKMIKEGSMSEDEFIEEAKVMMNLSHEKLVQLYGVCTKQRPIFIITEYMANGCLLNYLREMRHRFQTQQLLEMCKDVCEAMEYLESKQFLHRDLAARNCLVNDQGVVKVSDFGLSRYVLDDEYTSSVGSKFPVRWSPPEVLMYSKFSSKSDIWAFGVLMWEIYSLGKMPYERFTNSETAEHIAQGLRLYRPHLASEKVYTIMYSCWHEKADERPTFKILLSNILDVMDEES

C[C@H]1CN(C2COC2)C[C@H](C)N1c1ccc(Nc2cc(-c3ccnc(-n4ccn5c6c(cc5c4=O)CC(C)(C)C6)c3CO)cn(C)c2=O)nc1 [Compound 1, 2-(5-((5-((2S,6S)-2,6-dimethyl-4-(oxetan-3-yl)piperazin-1-yl)pyridin-2-yl)amino)-3′-(hydroxymethyl)-1-methyl-6-oxo-1,6-dihydro-[3,4′-bipyridin]-2′-yl)-7,7-dimethyl-7,8-dihydro-2H-cyclopenta[4,5]pyrrolo[1,2-a]pyrazin-1(6H)-one]
concentration at 16 h [1]: 6.27 ± 1.68 ng/mL | effect on paw volume ([2]; 0.25 mg/kg oral QD): significantly increase the continuous improvement of paw volume swelling | effect on paw volume ([2]; 4 mg/kg oral QD): significantly increase the continuous improvement of paw volume swelling | IC50 [3]: 5 nM
